From paper PMC12951562, “SH2scan: Mapping SH2 Domain-Ligand Binding Selectivity for Inhibitors and Degraders” (Journal of Medicinal Chemistry, 2026) come the findings set out here.

Read-outs that look alike come from different tables or passages of the source. Non-standard residues stand in square brackets, D forms with d. Residues, ends and D or L forms follow the SMILES beside them. *: point of attachment. pY = N[C@@H](Cc1ccc(OP(=O)(O)O)cc1)C(=O)O; Caffeoyl = O=C(/C=C/c1ccc(O)c(O)c1)*

Holding throughout (type): binding
For test [1], the target named is T1, STAT3(N647I)-nonphosphorylated (Homo sapiens, UniProt P40763, N647I).
T1 construct: made in house; host or cells: HEK293 (transient transfection), unpurified extract, dephosphorylated by endogenous phosphatases
T1 sequence (P40763 whole entry N647I): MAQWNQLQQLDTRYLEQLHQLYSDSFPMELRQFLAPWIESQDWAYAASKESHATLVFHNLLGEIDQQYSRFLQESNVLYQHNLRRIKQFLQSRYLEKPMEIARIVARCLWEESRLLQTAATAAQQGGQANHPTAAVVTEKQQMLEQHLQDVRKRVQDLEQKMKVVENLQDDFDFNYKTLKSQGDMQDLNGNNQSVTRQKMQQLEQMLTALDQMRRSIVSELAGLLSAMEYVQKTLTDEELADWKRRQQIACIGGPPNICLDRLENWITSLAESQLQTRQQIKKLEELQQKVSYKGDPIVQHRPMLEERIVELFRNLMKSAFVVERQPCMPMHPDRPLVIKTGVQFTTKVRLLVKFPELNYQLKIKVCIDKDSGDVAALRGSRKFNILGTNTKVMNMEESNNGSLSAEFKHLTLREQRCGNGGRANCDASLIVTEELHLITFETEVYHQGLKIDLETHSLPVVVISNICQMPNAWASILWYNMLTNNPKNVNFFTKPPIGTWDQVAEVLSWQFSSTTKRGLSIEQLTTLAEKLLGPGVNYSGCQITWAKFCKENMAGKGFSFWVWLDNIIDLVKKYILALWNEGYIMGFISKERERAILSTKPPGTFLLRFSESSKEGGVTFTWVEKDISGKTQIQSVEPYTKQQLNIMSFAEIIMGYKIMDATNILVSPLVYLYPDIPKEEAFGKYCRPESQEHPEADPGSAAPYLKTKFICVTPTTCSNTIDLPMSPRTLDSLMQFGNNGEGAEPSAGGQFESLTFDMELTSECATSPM
The test is described as follows: biochemical. As to conditions: for remaining activity at 10 µM / percent of DMSO vehicle control at 10 µM: read-out: percent of DMSO vehicle control.

For a further test, the target named is T2, STAT5B(N642H) (Homo sapiens, UniProt P51692, N642H).
T2 construct: made in house; host or cells: HEK293 (transient transfection), unpurified extract
T2 sequence (P51692 1-787 N642H): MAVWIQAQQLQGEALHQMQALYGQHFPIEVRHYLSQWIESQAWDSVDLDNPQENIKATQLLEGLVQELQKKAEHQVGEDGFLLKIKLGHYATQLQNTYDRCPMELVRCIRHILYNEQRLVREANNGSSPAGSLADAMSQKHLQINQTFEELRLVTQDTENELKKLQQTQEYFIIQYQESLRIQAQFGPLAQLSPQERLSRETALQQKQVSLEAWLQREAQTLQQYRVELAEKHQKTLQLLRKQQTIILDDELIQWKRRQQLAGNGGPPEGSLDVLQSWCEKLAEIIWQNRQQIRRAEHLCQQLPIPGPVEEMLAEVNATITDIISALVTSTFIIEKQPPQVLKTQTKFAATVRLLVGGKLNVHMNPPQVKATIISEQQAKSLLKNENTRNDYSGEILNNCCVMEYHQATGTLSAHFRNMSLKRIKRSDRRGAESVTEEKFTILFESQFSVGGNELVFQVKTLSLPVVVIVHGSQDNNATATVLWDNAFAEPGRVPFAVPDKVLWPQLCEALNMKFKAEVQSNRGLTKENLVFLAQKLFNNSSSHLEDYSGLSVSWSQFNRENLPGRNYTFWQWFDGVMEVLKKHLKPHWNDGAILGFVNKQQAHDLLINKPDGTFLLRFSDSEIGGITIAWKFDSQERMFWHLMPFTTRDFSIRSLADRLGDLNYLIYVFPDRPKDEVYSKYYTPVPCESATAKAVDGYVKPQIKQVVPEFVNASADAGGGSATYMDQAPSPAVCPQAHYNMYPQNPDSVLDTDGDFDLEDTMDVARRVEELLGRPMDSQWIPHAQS
In words: biochemical. As to conditions: for remaining activity at 10 µM / percent of DMSO vehicle control at 10 µM: read-out: percent of DMSO vehicle control.

The target in another test is T3, SHIP2 (Homo sapiens, UniProt O15357).
T3 construct: made in house; host or cells: HEK293 (transient transfection), unpurified extract
T3 sequence (O15357 1-1258): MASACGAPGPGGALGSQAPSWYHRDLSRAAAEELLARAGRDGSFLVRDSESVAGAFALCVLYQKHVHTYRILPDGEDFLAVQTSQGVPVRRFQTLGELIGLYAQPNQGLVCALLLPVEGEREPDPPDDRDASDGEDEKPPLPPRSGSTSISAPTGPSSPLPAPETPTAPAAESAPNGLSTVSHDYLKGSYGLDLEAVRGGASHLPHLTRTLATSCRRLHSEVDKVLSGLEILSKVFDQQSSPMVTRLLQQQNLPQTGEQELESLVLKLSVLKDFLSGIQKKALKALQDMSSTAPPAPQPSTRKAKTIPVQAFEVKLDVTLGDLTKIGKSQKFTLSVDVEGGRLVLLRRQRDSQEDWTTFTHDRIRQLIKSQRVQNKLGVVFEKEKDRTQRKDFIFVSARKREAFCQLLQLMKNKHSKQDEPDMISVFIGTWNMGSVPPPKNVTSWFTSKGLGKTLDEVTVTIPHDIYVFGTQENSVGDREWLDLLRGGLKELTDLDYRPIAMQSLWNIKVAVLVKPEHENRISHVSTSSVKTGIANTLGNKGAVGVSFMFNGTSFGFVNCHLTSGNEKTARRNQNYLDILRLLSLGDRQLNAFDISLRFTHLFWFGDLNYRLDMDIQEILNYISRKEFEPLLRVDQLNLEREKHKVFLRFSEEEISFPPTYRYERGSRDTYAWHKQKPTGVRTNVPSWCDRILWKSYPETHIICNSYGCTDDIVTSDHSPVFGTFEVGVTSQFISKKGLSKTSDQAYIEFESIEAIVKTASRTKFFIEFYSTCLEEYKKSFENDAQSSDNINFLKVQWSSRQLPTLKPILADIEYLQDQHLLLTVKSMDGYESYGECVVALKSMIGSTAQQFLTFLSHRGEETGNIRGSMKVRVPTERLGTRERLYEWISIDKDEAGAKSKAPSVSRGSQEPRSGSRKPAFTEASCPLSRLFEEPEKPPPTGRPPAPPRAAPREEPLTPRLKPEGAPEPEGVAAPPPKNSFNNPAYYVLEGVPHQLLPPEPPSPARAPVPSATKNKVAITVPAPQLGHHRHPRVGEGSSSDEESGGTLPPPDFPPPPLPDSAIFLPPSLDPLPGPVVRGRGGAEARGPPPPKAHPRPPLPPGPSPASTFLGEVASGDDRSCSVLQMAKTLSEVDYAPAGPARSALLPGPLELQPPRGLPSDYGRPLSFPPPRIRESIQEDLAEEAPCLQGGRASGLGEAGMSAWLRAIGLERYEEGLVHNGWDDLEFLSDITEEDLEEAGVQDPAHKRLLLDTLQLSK
In words: biochemical. As to conditions: for remaining activity at 10 µM: read-out: percent of DMSO vehicle control.

A further test concerns the target T4, SYK(SH2dom1.dom2.) (Homo sapiens, UniProt P43405).
T4 construct: the SH2 domains for these targets are expressed in tandem constructs; made in house; host or cells: HEK293 (transient transfection), unpurified extract
The following applies: primary screen, 10 μM.

The target in test [2] is T5, STAT3(D661Y)-nonphosphorylated (Homo sapiens, UniProt P40763, D661Y).
T5 construct: made in house; host or cells: HEK293 (transient transfection), unpurified extract, dephosphorylated by endogenous phosphatases
T5 sequence (P40763 whole entry D661Y): as the sequence (P40763 whole entry N647I) above, with I647N, D661Y counted along it
In words: biochemical. As to conditions: for remaining activity at 10 µM / percent of DMSO vehicle control at 10 µM: read-out: percent of DMSO vehicle control.

As to `C/C(=C\C(=O)N[C@H](C(=O)N1CCC[C@H]1C(=O)N(c1ccccc1)c1ccc(I)cc1)C(C)(C)C)c1ccc(OP(=O)(O)O)cc1` [STAT6-IN-1], the Kd in test [1] (dose-response, read-out: KD) was found to be 800 ± 120 nM; on STAT5B(N642H) (dose-response, read-out: KD) it was 5.6 ± 2.1 nM; at SHIP2 (dose-response, read-out: KD), 2030 ± 420 nM; in test [2] (dose-response, read-out: KD) it was 1000 ± 800 nM. The remaining activity at 10 µM worked out at 0% in test [1] (primary screen, 10 μM); 0% on STAT5B(N642H) (primary screen, 10 μM); 6.9 ± 3.9% at SHIP2 (primary screen, 10 μM); 0% in test [2] (primary screen, 10 μM). The “percent of DMSO vehicle control” value on SYK(SH2dom1.dom2.) is given as 61.2±11.0%.

As for `CC[C@H](C)[C@H](NC(=O)[C@H](CCC(=O)O)NC(=O)[C@H](CCC(=O)O)NC(=O)[C@H](Cc1ccc(OP(=O)(O)O)cc1)NC(=O)/C=C/c1ccc(O)c(O)c1)C(=O)N[C@@H](CCC(=O)O)C(=O)O` [Caffeic acid-pYEEIE] (Caffeoyl-[pY]EEIE-OH), the percent of DMSO vehicle control at 10 µM in test [1] came to 85.3 ± 2.1%; at STAT5B(N642H) it was 9.4 ± 1%; in test [2], 108 ± 9.3%. Also, the Kd turned out to be 2400 ± 2300 nM on STAT5B(N642H) and 230 ± 120 nM on SHIP2. At SHIP2, the remaining activity at 10 µM is 0.2%. The “percent of DMSO vehicle control” value at SYK(SH2dom1.dom2.) amounted to 72.6±6.4%.

On to `CC(=O)N1CC[C@H]2CC[C@@H](C(=O)N[C@@H](CCC(N)=O)C(=O)NC(c3ccccc3)c3ccccc3)N2C(=O)[C@@H](NC(=O)c2cc3cc(C(F)(F)P(=O)(O)O)ccc3[nH]2)C1` [SI-109], for which the Kd was 25 ± 8.3 nM in test [1], 19000 ± 8500 nM at STAT5B(N642H) and 21 ± 6.8 nM in test [2]. In addition, the percent of DMSO vehicle control at 10 µM in test [1] stood at 0.5 ± 0.1%; on STAT5B(N642H), 123%; in test [2] it was 0.6 ± 0.2%. The remaining activity at 10 µM on SHIP2 was 121%. Besides, on SYK(SH2dom1.dom2.), the “percent of DMSO vehicle control” value came to 121.8%.

On to `O=C(CCl)Nc1cccc(CNC(=O)[C@H](Cc2ccc(OP(=O)(O)O)cc2)NC(=O)Cc2ccc(F)cc2)c1` [MN551], for which the remaining activity at 10 µM in test [1] (primary screen, 10 μM) worked out at 81.2%; at STAT5B(N642H) (primary screen, 10 μM) it was 76.9%; at SHIP2 (primary screen, 10 μM), 31.7%; in test [2] (primary screen, 10 μM), 171%. For the same compound, the KD result at SHIP2 (dose-response) was “No Hit”. Besides, the “percent of DMSO vehicle control” value on SYK(SH2dom1.dom2.) was found to be 61.9±4.0%.

With `NC(=O)CC[C@H](NC(=O)[C@@H]1CC[C@@H]2CCN(C(=O)CCCCCC#Cc3cccc4c3CN(C3CCC(=O)NC3=O)C4=O)C[C@H](NC(=O)c3cc4cc(C(F)(F)P(=O)(O)O)ccc4[nH]3)C(=O)N21)C(=O)NC(c1ccccc1)c1ccccc1` (stereo partly shown) [SD-36], the Kd in test [1] (dose-response) was 63 ± 23 nM; on STAT5B(N642H) (dose-response) it was 2400 ± 740 nM; in test [2] (dose-response), 24 ± 12 nM. In addition, the percent of DMSO vehicle control at 10 µM in test [1] turned out to be 0%; on STAT5B(N642H), 3.2 ± 0.8%; in test [2], 0%. In addition, the remaining activity at 10 µM on SHIP2 is 67.3 ± 2.6%. Also, at SYK(SH2dom1.dom2.), the “percent of DMSO vehicle control” value is 104.6%.

`CC(=O)N[C@@H](Cc1ccc(CP(=O)(O)O)cc1)C(=O)NC1(C(=O)N[C@@H](CC(N)=O)C(=O)NCCCc2c(O)ccc3ccccc23)CCCCC1` [CGP78850]: the percent of DMSO vehicle control at 10 µM came out at 80.6 ± 2.9% in test [1], 107 ± 9.8% on STAT5B(N642H) and 97.4 ± 6.3% in test [2]. Also, the remaining activity at 10 µM at SHIP2 worked out at 106 ± 9.3%. Moreover, the “percent of DMSO vehicle control” value at SYK(SH2dom1.dom2.) is recorded as 85.1±0.1%.

As to `CC[C@H](C)[C@H](NC(=O)[C@H](CCC(=O)O)NC(=O)[C@H](CCC(=O)O)NC(=O)[C@H](Cc1ccc(OP(=O)(O)O)cc1)NC(C)=O)C(=O)N[C@@H](CCC(=O)O)C(N)=O` [Ac-pYEEIE-NH2] (Ac-[pY]EEIE-NH2), the “percent of DMSO vehicle control” value was 97.9±8.6% in test [1] (primary screen, 10 μM); 115.5% on STAT5B(N642H) (primary screen, 10 μM); 62.5±0.8% at SHIP2 (primary screen, 10 μM); 126.1% at SYK(SH2dom1.dom2.); 91.4±3.8% in test [2] (primary screen, 10 μM).

As for `O=C(COc1ccc2cc(C(=O)Nc3ccccc3)ccc2c1)NCc1ccc(OP(=O)(O)O)c(OP(=O)(O)O)c1` [Stafib-1], the remaining activity at 10 µM in test [1] (primary screen, 10 μM) turned out to be 78.6 ± 15.4%; on STAT5B(N642H) (primary screen, 10 μM) it was 12.5 ± 13.5%; in test [2] (primary screen, 10 μM), 157%. Also, the “percent of DMSO vehicle control” value on SYK(SH2dom1.dom2.) is 66.1±28.1%.

Turning to `CC(C)(C)[C@H](NC(=O)/C=C/c1ccc(OP(=O)(O)O)cc1)C(=O)N1CCC[C@H]1C(=O)N(c1ccccc1)c1ccc(I)cc1` [STAT6-IN-3], the Kd in test [1] (dose-response, read-out: KD) came out at 1500 ± 750 nM; on STAT5B(N642H) (dose-response, read-out: KD), 36 ± 27 nM; in test [2] (dose-response, read-out: KD) it was 1900 ± 2300 nM. The remaining activity at 10 µM in test [1] (primary screen, 10 μM) is 2.1 ± 3.7%; on STAT5B(N642H) (primary screen, 10 μM), 1.3 ± 7.7%; on SHIP2 (primary screen, 10 μM) it was 36.5 ± 29.6%; in test [2] (primary screen, 10 μM) it was 4.4 ± 3.7%. The KD entry on SHIP2 (dose-response) is “No Hit”. Besides, on SYK(SH2dom1.dom2.), the “percent of DMSO vehicle control” value is listed as 65.2±43.9%.
